Measured values taken from publication PMC7962978, “PSMA-D4 Radioligand for Targeted Therapy of Prostate Cancer: Synthesis, Characteristics and Preliminary Assessment of Biological Properties” (International Journal of Molecular Sciences, 2021).
One block for each compound: values may come before it.

What was measured:
[1] = tested on: LNCaP tumor-bearing mice; assay: Ex vivo biodistribution in mice bearing LNCaP tumor
Protocol: An experimental tumor murine model was induced using LNCaP cell, which grew to 80–90% confluence before trypsinization and formulation in Matrixgel™ Basement Membrane Matrix (Bedford, MA, USA) for implantation into mice. The mice were subcutaneously injected in the shoulder with 200 mcL bolus containing a suspension of 10^6 freshly harvested cell line LNCaP in Matrixgel™. This procedure was performed under anaesthesia with 2% isoflurane. The animals were kept under pathogen-free condition, and experiments were performed 2–3 weeks later when a tumor reached a volume of approximately 150 ± 60 mm^3. Then, the animals were randomized into two groups (25 mice per group, five mice per time point): Group 1, treated with a single intravenous injection of [^90Y]Y-PSMA-D4 (0.1 mL, 0.1 mcg, 15.5 MBq, SA 16.7 GBq mg^−1 = 17.2 GBq mcmol^−1) and Group 2, treated with a single intravenous injection of [^47Sc]Sc-PSMA-D4 (0.1 mL, 0.19 mcg, 10 MBq, SA 4.8 GBq mg^−1 = 4.57 GBq mcmol^−1).
At 1, 2, 4, 6, 24, and 48 h after injection, the animals were euthanized by cervical dislocation and dissected. Selected organs and tissues were assayed for their radioactivity and weighted. The physiological distribution was calculated and expressed in terms of the percentage of administrated radioactivity found in each of the selected organs or tissues per gram (%ID g^−1).
Results are provided as mean ± SD. The results of physiological distribution are presented as a percentage of the dose administered per gram of tissue (%ID g^−1) as average value with standard deviation (%ID g^−1; mean ± standard deviation (SD)) with n representing the number of animals per group. Data were statistically analyzed using GraphPad Prism version 8.0.0 for Window.

[2] = tested on: LNCaP cells; assay: Cell uptake (total binding) and internalization in LNCaP cells; format: cell-based, human; details: 37 °C, 2 h
Protocol: To determine cell uptake and internalization of [^177Lu]Lu-PSMA-D4 and [^90Y]Y-PSMA-D4, LNCaP cells (5 × 10^5 cells well^−1) were incubated in un-supplemented RPMI 1640 medium with one concentration of tested radioligands on 12-well plates in 37 °C per 2 h. After the appropriate time, the medium was removed, and cells were washed twice using phosphate buffer saline (PBS, IITD PAN, Wroclaw, Poland). The cells were treated twice with 1 mL of 50 mM glycine in 0.1 M NaCl at a pH of 2.8 and incubated for 5 min at room temperature to collect extracellularly bound compound. The internalization was determined by measuring the radioactivity of 1mL of 1 M NaOH used for cell lysis. Total binding was calculated as a sum of the membrane and internalized fractions measured using Wallac Wizard 1470 γ counter. As a control, [^177Lu]Lu-PSMA-617 and [^68Ga]Ga-PSMA-11 were used.

[3] = Lipophilicity determination (logD), shake-flask method; format: physicochemical; details: n-octanol / PBS pH 7.4, shake-flask
Protocol: The partition coefficient logD of the radioligands was determined by the shake-flask method. The solution of 10 to 50 MBq of radiolabeled PSMA ligands (D-4, 617, 11, I&T) in 1.0 mL of phosphate-buffered saline (PBS, pH 7.4) was added to 1.0 mL of presaturated n-octanol solution (n = 3). Vials were shaken vigorously for 10 min. To achieve quantitative phase separation, the vials were centrifuged at 1600 rpm for 5 min. The radioactivity concentration in a defined volume of both the aqueous and the organic phase in six replicates each was measured in a γ-counter (Wizard 1470, Wallac, Turku, Finland). The partition coefficient was calculated as the logarithm of the ratio between counts per minute (cpm) measured in the n-octanol phase to the PBS phase counts.

[4] = tested on: LNCaP tumor-bearing mice; assay: Cerenkov luminescence imaging (CLI) of LNCaP tumor-bearing mice; format: in vivo; details: 2-48 h p.i.
Protocol: The PhotonIMAGER Optima system (Biospace Lab, Nesles-la-Vallée, France) was used for the non-invasive detection, localization, and quantification of yttrium-90 signal from live animals based on Cerenkov luminescence imaging. It was feasible due to high-energy β^− particle emission produces continuous spectrum light photons or Cerenkov radiation. Optical imaging of [^90Y]Y-PSMA-D4 in LNCaP cell grafted mice was performed contemporaneously with ex vivo studies. The animals were placed individually in an induction chamber, where anaesthesia was induced with 5% isoflurane (Iso-Vet, Piramal Healthcare UK Limited, West Drayton, UK) in 100% oxygen with a delivery rate of 2 L min^−1 until loss of righting reflex. After induction, the animals were moved to the optical chamber. Anaesthesia was then maintained with 1.5–2% isoflurane in 100% oxygen with a flow of 1.5 L min^−1 administered through a facemask connected to a coaxial circuit. Body temperature was maintained at 37 °C by a heating table inside the chamber. At recovery, all animals received 100% oxygen until recovery of righting reflex. No mice were restrained during anaesthesia.

[5] = target: T1, PSMA antigen (Homo sapiens, UniProt Q04609); assay: Saturation radioligand binding assay on LNCaP (PSMA positive) and PC3 (PSMA negative) cell membranes; details: for Kd: LNCaP cell membranes, 2 h, 37 °C; for Specific Binding: total binding on LNCaP minus non-specific binding on PC3 membranes
T1 construct: PSMA antigen expressed on LNCaP cell membranes; endogenous in cells; host or cells: LNCaP cell membranes (PC3 membranes as PSMA-negative control)
Protocol: The equilibrium constant (KD) was determined by a saturation binding experiment performed in PSMA positive LNCaP and PSMA negative PC3 cell membranes isolated according to the procedure developed by Fichna et al.. The 50 mcL of LNCaP and PC3 cell membranes were seeded on special MultiScreen™ 96 well filter plates (Merck, Warsaw, Poland) and incubated for 2 h with increasing concentration of [^177Lu]Lu-PSMA-D4, [^90Y]Y-PSMA-D4, and […] (0.016–194 nM) at 37 °C. After incubation, the unbound radiocomplexes were filtered under vacuum, and the membranes were washed twice using PBS. The filters containing membranes with the attached radiotracer were extruded into tubes using MultiScreen Multile Punch (Merck). The number of associated inhibitors was determined by measuring the radioactivity of squeezed filters using Wallac Wizard 1470 γ counter. The KD and Bmax were calculated by nonlinear regression using the GraphPad Prism statistic program.

[6] = Blood pharmacokinetics, one-phase model, healthy rats; format: in vivo; details: healthy rats (data not presented)

T1 sequence (Q04609 whole entry): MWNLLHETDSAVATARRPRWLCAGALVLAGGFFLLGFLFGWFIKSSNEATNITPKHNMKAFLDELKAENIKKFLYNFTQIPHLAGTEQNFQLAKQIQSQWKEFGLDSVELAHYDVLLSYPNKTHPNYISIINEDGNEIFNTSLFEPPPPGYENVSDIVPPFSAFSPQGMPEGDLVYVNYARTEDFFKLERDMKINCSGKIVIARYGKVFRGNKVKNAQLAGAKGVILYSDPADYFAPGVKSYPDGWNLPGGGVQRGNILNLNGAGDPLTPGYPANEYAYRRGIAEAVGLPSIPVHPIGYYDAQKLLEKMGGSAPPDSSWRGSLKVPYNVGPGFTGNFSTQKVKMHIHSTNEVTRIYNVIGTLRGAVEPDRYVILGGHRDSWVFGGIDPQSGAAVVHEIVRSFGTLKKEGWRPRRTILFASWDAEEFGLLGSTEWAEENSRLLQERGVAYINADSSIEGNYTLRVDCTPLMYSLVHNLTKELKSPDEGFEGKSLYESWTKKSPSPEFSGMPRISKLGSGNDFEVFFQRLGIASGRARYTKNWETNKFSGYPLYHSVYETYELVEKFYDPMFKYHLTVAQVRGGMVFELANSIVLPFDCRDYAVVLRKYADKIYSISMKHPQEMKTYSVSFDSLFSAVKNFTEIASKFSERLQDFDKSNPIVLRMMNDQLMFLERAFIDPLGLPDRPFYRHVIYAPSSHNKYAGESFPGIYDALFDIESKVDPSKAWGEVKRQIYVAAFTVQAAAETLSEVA

T/B (ratio tumor to blood) ([1]; 2 h after i.v. injection): 323.7
T/K (ratio tumor to kidneys) ([1]; 2 h after i.v. injection): 7.6
T/M (ratio tumor to muscle) ([1]; 2 h after i.v. injection): 97.0
blood ([1]; 2 h after i.v. injection): 0.06 ± 0.01 %ID g^−1
kidneys ([1]; 2 h after i.v. injection): 2.70 ± 0.20 %ID g^−1
large intestine ([1]; 2 h after i.v. injection): 0.12 ± 0.05 %ID g^−1
liver ([1]; 2 h after i.v. injection): 0.08 ± 0.00 %ID g^−1
muscle ([1]; 2 h after i.v. injection): 0.21 ± 0.13 %ID g^−1
small intestine ([1]; 2 h after i.v. injection): 0.32 ± 0.13 %ID g^−1
spleen ([1]; 2 h after i.v. injection): 0.19 ± 0.06 %ID g^−1
stomach ([1]; 2 h after i.v. injection): 0.10 ± 0.04 %ID g^−1
tumor ([1]; 2 h after i.v. injection): 20.24 ± 5.52 %ID g^−1
urine ([1]; 2 h after i.v. injection): 96.08 ± 0.53 %ID
T/B (ratio tumor to blood) ([1]; 4 h after i.v. injection): 312.9
T/K (ratio tumor to kidneys) ([1]; 4 h after i.v. injection): 9.7
T/M (ratio tumor to muscle) ([1]; 4 h after i.v. injection): 324.4
blood ([1]; 4 h after i.v. injection): 0.05 ± 0.03 %ID g^−1
kidneys ([1]; 4 h after i.v. injection): 1.70 ± 0.13 %ID g^−1
large intestine ([1]; 4 h after i.v. injection): 0.32 ± 0.16 %ID g^−1
liver ([1]; 4 h after i.v. injection): 0.08 ± 0.01 %ID g^−1
muscle ([1]; 4 h after i.v. injection): 0.05 ± 0.02 %ID g^−1
small intestine ([1]; 4 h after i.v. injection): 0.30 ± 0.14 %ID g^−1
spleen ([1]; 4 h after i.v. injection): 0.17 ± 0.06 %ID g^−1
stomach ([1]; 4 h after i.v. injection): 0.11 ± 0.05 %ID g^−1
tumor ([1]; 4 h after i.v. injection): 16.40 ± 6.88 %ID g^−1
urine ([1]; 4 h after i.v. injection): 95.47 ± 3.07 %ID
T/B (ratio tumor to blood) ([1]; 6 h after i.v. injection): 131.2
T/K (ratio tumor to kidneys) ([1]; 6 h after i.v. injection): 8.4
T/M (ratio tumor to muscle) ([1]; 6 h after i.v. injection): 983.7
blood ([1]; 6 h after i.v. injection): 0.06 ± 0.01 %ID g^−1
kidneys ([1]; 6 h after i.v. injection): 0.98 ± 0.38 %ID g^−1
large intestine ([1]; 6 h after i.v. injection): 0.20 ± 0.02 %ID g^−1
liver ([1]; 6 h after i.v. injection): 0.31 ± 0.07 %ID g^−1
muscle ([1]; 6 h after i.v. injection): 0.01 ± 0.01 %ID g^−1
small intestine ([1]; 6 h after i.v. injection): 0.14 ± 0.11 %ID g^−1
spleen ([1]; 6 h after i.v. injection): 1.05 ± 0.29 %ID g^−1
stomach ([1]; 6 h after i.v. injection): 0.04 ± 0.03 %ID g^−1
tumor ([1]; 6 h after i.v. injection): 8.28 ± 1.97 %ID g^−1
urine ([1]; 6 h after i.v. injection): 96.57 ± 2.44 %ID
T/B (ratio tumor to blood) ([1]; 24 h after i.v. injection): 257.6
T/K (ratio tumor to kidneys) ([1]; 24 h after i.v. injection): 29.0
T/M (ratio tumor to muscle) ([1]; 24 h after i.v. injection): 387.4
blood ([1]; 24 h after i.v. injection): 0.03 ± 0.03 %ID g^−1
kidneys ([1]; 24 h after i.v. injection): 0.30 ± 0.12 %ID g^−1
large intestine ([1]; 24 h after i.v. injection): 0.41 ± 0.15 %ID g^−1
liver ([1]; 24 h after i.v. injection): 0.04 ± 0.01 %ID g^−1
muscle ([1]; 24 h after i.v. injection): 0.02 ± 0.02 %ID g^−1
small intestine ([1]; 24 h after i.v. injection): 0.20 ± 0.20 %ID g^−1
spleen ([1]; 24 h after i.v. injection): 0.12 ± 0.06 %ID g^−1
stomach ([1]; 24 h after i.v. injection): 0.06 ± 0.05 %ID g^−1
tumor ([1]; 24 h after i.v. injection): 8.33 ± 3.09 %ID g^−1
urine ([1]; 24 h after i.v. injection): 94.79 ± 7.51 %ID
T/B (ratio tumor to blood) ([1]; 48 h after i.v. injection): 193.0
T/K (ratio tumor to kidneys) ([1]; 48 h after i.v. injection): 68.4
T/M (ratio tumor to muscle) ([1]; 48 h after i.v. injection): 351.4
blood ([1]; 48 h after i.v. injection): 0.04 ± 0.02 %ID g^−1
kidneys ([1]; 48 h after i.v. injection): 0.12 ± 0.03 %ID g^−1
large intestine ([1]; 48 h after i.v. injection): 0.84 ± 0.56 %ID g^−1
liver ([1]; 48 h after i.v. injection): 0.17 ± 0.07 %ID g^−1
muscle ([1]; 48 h after i.v. injection): 0.02 ± 0.01 %ID g^−1
small intestine ([1]; 48 h after i.v. injection): 0.14 ± 0.07 %ID g^−1
spleen ([1]; 48 h after i.v. injection): 0.97 ± 0.62 %ID g^−1
stomach ([1]; 48 h after i.v. injection): 0.03 ± 0.03 %ID g^−1
tumor ([1]; 48 h after i.v. injection): 8.03 ± 7.31 %ID g^−1
urine ([1]; 48 h after i.v. injection): 97.75 ± 0.34 %ID
logD [3]: −5.18 ± 0.04
Kd [5]: 4.5 ± 2.1 nM
Specific Binding [5]: 99.9 ± 0.1%
Structure (SMILES): O=C([O-])CN1CCN(CC(=O)[O-])CCN(CC(=O)NCC2CCC(C(=O)NC(Cc3c[nH]c4ccccc34)C(=O)NCCCCC(NC(=O)NC(CCC(=O)O)C(=O)O)C(=O)O)CC2)CCN(CC(=O)[O-])CC1.[90Y+3] (centres unmarked) [[^90Y]Y-PSMA-D4]
Internalization [2]: 35.4%
Total Binding [2]: 16.8%
in vivo CLI tumor visualization [4]: excellent tumor visualization

Structure (SMILES): O=C([O-])CN1CCN(CC(=O)[O-])CCN(CC(=O)NCC2CCC(C(=O)NC(Cc3c[nH]c4ccccc34)C(=O)NCCCCC(NC(=O)NC(CCC(=O)O)C(=O)O)C(=O)O)CC2)CCN(CC(=O)[O-])CC1.[177Lu+3] (centres unmarked) [[^177Lu]Lu-PSMA-D4]
Internalization [2]: 37.0 ± 3.3%
Total Binding [2]: 10.2%
logD [3]: −5.16 ± 0.07
blood half-life [6]: 33 min
Kd [5]: 2.4 ± 0.3 nM
Specific Binding [5]: 99.1 ± 0.3%
